Experimental data as given in article PMC10799709, “Characterization of a New Immunosuppressive and Antimicrobial Peptide, DRS-DA2, Isolated from the Mexican Frog, Pachymedusa dacnicolor” (International Journal of Inflammation, 2024).
Peptide text beside a SMILES is read from it.

Columns and labels:
A549 cells = assay: A549 viability, CCK8 assay; type: cell-based, human; details: A549, 1 h, 37°C, duplicate, no death at 10 µM
Text: (§1) Human leukocytes were provided by the « Banco de Sangre del Hospital Regional del IMSS » and the Centro Estatal de la Transfusión Sanguínea in Cuernavaca, Morelos, Mexico. Institutional committees approved the acquisition and isolation of human peripheral blood leukocytes. Human leukocytes and erythrocytes were obtained as previously described. Mouse bone marrow cells (MBMCs) and erythrocytes were obtained from C57BL/6 or Balb/c mice. Mouse epithelial cells were isolated from C57Bl/6 mice, and human epithelial cells were recovered from surgery residues. In brief, intestinal tissues were minced and digested in 450-U/mL collagenase I, 125-U/mL collagenase XI, 60-U/mL hyaluronidase, and 60-U/mL DNAse for 1 hour before gradient density centrifugation on Histopaque-1083 (Sigma-Aldrich, St. Louis, MO). A549 cells (ATCC CCL-185), a human lung carcinoma cell line, were cultivated at 37°C in a humid atmosphere and 5% CO2, with DMEM advanced medium (Gibco®) supplemented with 5% of fetal bovine serum (FBS), 2 mM of glutamine, 100 U of penicillin, and 50 μg/mL of streptomycin (Gibco®). Jurkat E6-1 cells were cultured in an RPMI medium supplemented with 5% fetal bovine serum.
For the cell line A549, viability was assessed by the CCK8 assay (DoJindo) as indicated by the manufacturer. […] The absorbance at 450 nm was measured after 3 h incubation.

[1] = test system: Human primary epithelial cells; assay: Cytotoxic assay on human primary epithelial cells; type: cell-based; details: 2 h, 37°C, flow cytometry, no death at 10 µM
Text: as §1, with “A549 cells (ATCC CCL-185), a human lung carcinoma cell line, were cultivated at 37°C in a humid atmosphere and 5% CO2, with DMEM advanced medium (Gibco®) supplemented with 5% of fetal bovine serum (FBS), 2 mM of glutamine, 100 U of penicillin, and 50 μg/mL of streptomycin (Gibco®). Jurkat E6-1 cells were cultured in an RPMI medium supplemented with 5% fetal bovine serum.” left out
(§2) 5.10^5 mouse or human leukocytes or primary epithelial cells, A549 or Jurkat E6-1 cells, were incubated in 100 µl RPMI or DMEM containing 0.5% BSA and […] with the peptides at different concentrations for 2 hours at 37°C, 5% CO2. […] Viability of leukocytes and Jurkat cells was determined by adding a viability dye (eFluor 780) and counted by FacsCanto flow cytometry with a predetermined number of beads (Polybead, Carboxylate Microspheres, Polysciences, Inc., Le Perray-en-Yvelines, France) added to the samples. […] Data were analyzed with FlowJo.

Mouse erythrocytes = assay: Hemolytic test, mouse erythrocytes; type: cell-based; details: mouse erythrocytes in PBS, 1 h, absorbance 550 nm; no death at 10 µM; 3 independent experiments in triplicate
Protocol: (§3) Blood from a mouse or healthy adult donor was centrifuged at 800 × g for 10 minutes at 4°C. The pellet containing red blood cells was then washed three times in 10 volumes of PBS and was diluted in 4% (v/v) in PBS. Blood and peptides at different concentrations were then incubated at 37°C for one hour. Cells were centrifuged 1500 × g for 5 minutes at room temperature. Hemolysis was measured in the supernatant at 550 nm. Red blood cells lysed with 1% Triton X-100 was used as a control, achieving 100% hemolysis. Percent hemolysis was calculated using the following formula: % hemolysis = 100% × [(A − A0)/(At − A0)], where A represents the absorbance of the peptide sample at 550 nm and A0 and At represent 0% and 100% hemolysis determined in 10 mM PBS and 0.1% Triton X-100, respectively.

[2] = In vitro peptide stability in rat serum, RP-HPLC; type: in vitro ADME; details: 37°C, 300 µM peptide; for degradation of the peptide: RPMI with 25% (v/v) rat serum
Protocol: (§4) One mL of RPMI supplemented with 25% (v/v) rat serum was equilibrated at 37°C for 15 min before adding the peptide (final concentration of 300 µM). At different time points, 300 µL of the reaction solution was removed and completed to 600 µL with 96% ethanol. The sample was cooled at 4°C for 15 min and then spun to precipitate serum proteins. The supernatant was recovered and submitted to the viability assay as described in the cytotoxic assay section or analyzed by RP-HPLC on C18–300 100 × 4, 6 mm. A linear gradient from 100% buffer A (0.1% TFA in H20) to 60% of buffer B (0.1% TFA in ACN) was used over 10 min with a flow rate of 1 mL/min. The absorbance was detected at both 220 nm and 280 nm.

Human erythrocytes = assay: Hemolytic test, human erythrocytes; type: cell-based; details: human erythrocytes in PBS, 1 h, 37°C, absorbance 550 nm; no death at 10 µM; 3 independent experiments in triplicate
Protocol: as §3

[3] = test system: Mouse primary epithelial cells; assay: Cytotoxic assay on mouse primary epithelial cells; type: cell-based; details: 2 h, 37°C, flow cytometry, no death at 10 µM
Text: as §1, with “A549 cells (ATCC CCL-185), a human lung carcinoma cell line, were cultivated at 37°C in a humid atmosphere and 5% CO2, with DMEM advanced medium (Gibco®) supplemented with 5% of fetal bovine serum (FBS), 2 mM of glutamine, 100 U of penicillin, and 50 μg/mL of streptomycin (Gibco®). Jurkat E6-1 cells were cultured in an RPMI medium supplemented with 5% fetal bovine serum.” left out
as §2

mouse bone marrow cells = assay: Cytotoxic activity of peptide recovered after serum incubation; type: cell-based; details: then 5 µM on mouse bone marrow cells for 2 h
Protocol: 5.10^5 mouse or human leukocytes or primary epithelial cells, A549 or Jurkat E6-1 cells, were incubated in 100 µl RPMI or DMEM containing 0.5% BSA and […] with the peptides at different concentrations for 2 hours at 37°C, 5% CO2. Incubation of the cells with DMSO 30% was used as a positive control. For the kinetic assay, the cells were incubated with the peptides for different time periods. Viability of leukocytes and Jurkat cells was determined by adding a viability dye (eFluor 780) and counted by FacsCanto flow cytometry with a predetermined number of beads (Polybead, Carboxylate Microspheres, Polysciences, Inc., Le Perray-en-Yvelines, France) added to the samples. Mouse leukocytes were stained with anti-mouse Ly6G-PE, anti-mouse NK1.1-PE, anti-mouse CD11b-PerCP, and anti-mouse F4/80-APC (BD Biosciences, Rungis, France). Human leukocytes were stained with anti-human CD45-PB, anti-human CD16-PE-Cy7, anti-human CD56-PE-Cy7, anti-human CD14-FITC, anti-human CD3V500, anti-human CD8-APC, and anti-human CD4-PE. Data were analyzed with FlowJo.
as §4

Structure (SMILES): CSCC[C@H](NC(=O)[C@H](CC(N)=O)NC(=O)[C@@H](NC(=O)[C@@H](NC(=O)[C@H](C)NC(=O)[C@H](CC(N)=O)NC(=O)[C@H](CC(C)C)NC(=O)[C@@H](NC(=O)[C@H](C)NC(=O)[C@H](CCCCN)NC(=O)CNC(=O)[C@H](C)NC(=O)[C@@H](NC(=O)[C@H](CCCCN)NC(=O)CNC(=O)[C@@H](NC(=O)[C@H](CCCCN)NC(=O)[C@H](CCCCN)NC(=O)[C@H](CC(C)C)NC(=O)[C@H](CC(C)C)NC(=O)[C@@H](NC(=O)[C@H](CCCCN)NC(=O)[C@H](Cc1c[nH]c2ccccc12)NC(=O)[C@H](CC(C)C)NC(=O)[C@H](C)N)[C@@H](C)O)C(C)C)C(C)C)C(C)C)C(C)C)[C@@H](C)O)C(=O)N[C@@H](C)C(=O)N[C@@H](CC(N)=O)C(=O)N[C@@H](CCC(N)=O)C(=O)N[C@@H](CC(N)=O)C(=O)N[C@@H](CCC(=O)O)C(=O)N[C@@H](CCC(N)=O)C(=O)O [DRS-DA2NEQ] (H-ALWKTLLKKVGKVAGKAVLNAVTNMANQNEQ-OH)
- toxicity for A549 cells (A549 cells): not toxic
- Trp λmax in aqueous buffer: 355 nm
- toxicity for primary epithelial cells [1]: not toxic
- toxicity for erythrocytes (hemolysis) (Mouse erythrocytes): not toxic
- time of resistance to enzymatic degradation ([2]; rat serum, title of Figure 7): 15 min
- toxicity for erythrocytes (hemolysis) (Human erythrocytes): not toxic
- toxicity for primary epithelial cells [3]: not toxic

Structure (SMILES): CSCC[C@H](NC(=O)[C@H](CC(N)=O)NC(=O)[C@@H](NC(=O)[C@@H](NC(=O)[C@H](C)NC(=O)[C@H](CC(N)=O)NC(=O)[C@H](CC(C)C)NC(=O)[C@@H](NC(=O)[C@H](C)NC(=O)[C@H](CCCCN)NC(=O)CNC(=O)[C@H](C)NC(=O)[C@@H](NC(=O)[C@H](CCCCN)NC(=O)CNC(=O)[C@@H](NC(=O)[C@H](CCCCN)NC(=O)[C@H](CCCCN)NC(=O)[C@H](CC(C)C)NC(=O)[C@H](CC(C)C)NC(=O)[C@@H](NC(=O)[C@H](CCCCN)NC(=O)[C@H](Cc1c[nH]c2ccccc12)NC(=O)[C@H](CC(C)C)NC(=O)[C@H](C)N)[C@@H](C)O)C(C)C)C(C)C)C(C)C)C(C)C)[C@@H](C)O)C(=O)N[C@@H](C)C(=O)N[C@@H](CC(N)=O)C(=O)N[C@@H](CCC(N)=O)C(=O)N[C@@H](CC(N)=O)C(=O)O [DRS-DA2N] (H-ALWKTLLKKVGKVAGKAVLNAVTNMANQN-OH)
- toxicity for A549 cells (A549 cells): not toxic
- Trp λmax in aqueous buffer: 355 nm
- toxicity for primary epithelial cells [1]: not toxic
- toxicity for erythrocytes (hemolysis) (Mouse erythrocytes): not toxic
- percentage of dead cells versus t0 peptide (mouse bone marrow cells; peptide (300 µM) pre-incubated with serum 15 min (t15), flow cytometry): no significant differences
- percentage of dead cells versus t0 peptide (mouse bone marrow cells; peptide pre-incubated with serum 30 min (t30)): started to decrease
- induction of cell death (mouse bone marrow cells; peptide pre-incubated with serum 24 h (t24)): almost completely abolished
- degradation of the peptide ([2]; 24 h, RP-HPLC, UV 220 nm): totally degraded
- degradation of the peptide ([2]; after 30 min, RP-HPLC C18, UV 220 nm, intact peak area vs sum of all peptide areas, n = 3 independent experiments): 40%
- toxicity for erythrocytes (hemolysis) (Human erythrocytes): not toxic
- toxicity for primary epithelial cells [3]: not toxic
